Paper PMC9413995, “Synthesis and Assessment of the In Vitro and Ex Vivo Activity of Salicylate Synthase (Mbti) Inhibitors as New Candidates for the Treatment of Mycobacterial Infections” (Pharmaceuticals, 2022)
Values after ≈ are worked out from the molar mass of the structure shown. Values joined by “and” are separate entries in the source; they are usually repeats but may differ in a detail not shown here. Identical values can stand only once. “Also recorded” adds a separate entry of the source. Like-named read-outs stand apart in the source and are kept apart here.

Experiments:
[1] = target: T1, Recombinant M. tuberculosis MbtI (Mycobacterium tuberculosis, UniProt P9WFX1); assay: MbtI enzymatic assay (fluorimetric); type: biochemical; details: for IC50: MbtI activity, calculated for compounds showing %RA < 20; for % RA (percentage of residual enzymatic activity) / remaining activity at 100 µM: compound at 100 μM, 50 µM chorismic acid; for remaining activity at 100 µM: read-out: % RA (percentage of residual enzymatic activity)
T1 construct: made in house
T1 sequence (P9WFX1 whole entry): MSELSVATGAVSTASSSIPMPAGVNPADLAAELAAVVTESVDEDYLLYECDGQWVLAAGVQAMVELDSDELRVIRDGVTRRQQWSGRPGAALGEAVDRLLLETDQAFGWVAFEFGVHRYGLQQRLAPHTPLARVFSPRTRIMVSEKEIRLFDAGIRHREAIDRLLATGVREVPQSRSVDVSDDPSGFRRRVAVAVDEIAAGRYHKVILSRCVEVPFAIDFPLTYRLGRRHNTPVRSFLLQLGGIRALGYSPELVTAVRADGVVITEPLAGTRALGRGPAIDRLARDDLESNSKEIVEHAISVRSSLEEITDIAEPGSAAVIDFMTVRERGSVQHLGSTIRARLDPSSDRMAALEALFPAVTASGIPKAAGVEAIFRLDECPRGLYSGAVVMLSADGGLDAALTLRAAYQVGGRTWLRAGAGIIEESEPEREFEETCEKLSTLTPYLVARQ
Experimental: Recombinant M. tuberculosis MbtI was produced and purified, and enzyme activity determined as previously reported. All the reactions were performed at 37 °C, in a final volume of 400 μL of 50 mM Hepes pH 7.5, 5 mM MgCl2, containing 1–2 μM MbtI, by the addition of chorismic acid, and monitored using a Perkin Elmer LS3 fluorimeter (Ex. λ = 305 nm, Em. λ = 420 nm). […] IC50 values were determined by measuring the activity at different concentrations of the compound, and using the following equation with GraphPad software:(1) A[I] =A[0] × 1−[I]/[I]+IC50
where A[I] is the activity at inhibitor concentration [I] and A[0] is the activity in the absence of the inhibitor.

M. bovis BCG [2] = assay: microbe, parasite or virus in culture; type: cell-based; details: iron-limiting chelated Sauton's medium, REMA, 15 days
M. abscessus = assay: Infection assay of MPI-2-eGFP mAMs with M. abscessus tdTomato; type: cell-based
[3] = tested on: platelet (PLT), red blood cells (RBC), and white blood cells (WBC); assay: Blood cell count in whole blood of healthy volunteers; type: cell-based, human; details: 100 nM, 500 nM, 1 µM, up to 3 h, room temperature
Experimental: (§1) Whole blood (WB), drawn with a 19-gauge needle without venous stasis into sodium citrate (0.129M, 1/10 volume/volume)-containing tubes (Vacutainer, Becton Dickinson), discarding the first 4 mL, was incubated with 1f (100 nM, 500 nM, and 1000 nM) or with solvent (DMSO; final dilution: 0.01%) up to 3 h at room temperature. Untreated (NT) WB of each healthy volunteer was used as a comparison.
(§2) PLT, RBC, and WBC counts were assessed at 0, 15, 30, 45, 60, 120 min and 3 h after the addition of 1f or solvent using Sysmex XE-2100 Automated Hematology Analyzer. Data were reported as count ± SD of each cell population. To evaluate the effect of 1f on platelet activation, conventional platelet activation markers [P-selectin and activated glycoprotein IIbIIIa (aGPIIbIIIa)], as well as platelet-associated tissue factor (TF) expression, were analyzed by WB flow cytometry as previously described at 0, 30 and 60 min after the addition of the highest concentration of 1f or solvent. […] Microvesicle formation, another well-known activation marker, was also assessed by flow cytometry at each time point after the addition of different concentrations of 1f or solvent. Fluorochrome-conjugated isotype controls were used to quantify the background labeling. […]

platelets = assay: Platelet activation assessment by whole blood flow cytometry; type: cell-based, human
Experimental: as §1, §2

M. bovis BCG [4] = type: cell-based
M. bovis BCG [5] = type: cell-based; remark: listed apart in the source
M. bovis BCG [6] = details: previous lead; cited from earlier work
[7] = Mycobacterium tuberculosis variant bovis BCG, BCG, 360 h

Row | Structure (SMILES) | IC50 [1] | remaining activity at 100 µM [1] [%] | MIC99 (M. bovis BCG [2]; [7]) [µM] | melting point | further results
1 | N#Cc1cc(Oc2ccccc2)cc(-c2ccc(C(=O)O)o2)c1 [1a, 5-(3-Cyano-5-phenoxyphenyl)furan-2-carboxylic acid] | 23.1 ± 2.6 µM | 14 | 125 (≈ 38.2 µg/mL) |  | % RA (percentage of residual enzymatic activity) [1]: 14.0 ± 4.1%
2 | N#Cc1cc(OCc2ccccc2)cc(-c2ccc(C(=O)O)o2)c1 [1b, 5-(3-(Benzyloxy)-5-cyanophenyl)furan-2-carboxylic acid] | 15.6 ± 1.2 µM | 1.2 ± 0.4 | 250 (≈ 79.8 µg/mL) | 187 °C | 
3 | N#Cc1cc(OCCc2ccccc2)cc(-c2ccc(C(=O)O)o2)c1 [1c, 5-(3-Cyano-5-phenethoxyphenyl)furan-2-carboxylic acid] | ~3 µM and 3 µM | 0.6 ± 0.5 | 250 (≈ 83.3 µg/mL) | 202 °C | 
4 | N#Cc1cc(OCCCc2ccccc2)cc(-c2ccc(C(=O)O)o2)c1 [1d, 5-(3-Cyano-5-(3-phenylpropoxy)phenyl)furan-2-carboxylic acid] |  | ~25 |  | 186 °C | % RA (percentage of residual enzymatic activity) [1]: 25.6 ± 5.8%
5 | N#Cc1cc(OC/C=C/c2ccccc2)cc(-c2ccc(C(=O)O)o2)c1 [1e, (E)-5-(3-(Cinnamyloxy)-5-cyanophenyl)furan-2-carboxylic acid] | 13.5 ± 1 µM | 11.5 ± 1.7 | ~125 (≈ 43.2 µg/mL) | 170 °C | MIC99 (M. bovis BCG [2]): 125 µM (≈ 43.2 µg/mL)
6 | N#Cc1cc(OCCOc2ccccc2)cc(-c2ccc(C(=O)O)o2)c1 [1f, 5-(3-Cyano-5-(2-phenoxyethoxy)phenyl)furan-2-carboxylic acid] | 12.1 ± 2 µM | 5.5 ± 2.4 | 63 (≈ 22 µg/mL) |  | Mab_tdTomato load 3-days p.t with respect to the prior time point (M. abscessus; highest concentration tested (32 μM), plate reader): significantly reduced; intracellular Mab_tdTomato burden in infected cells (microscopy, image segmentation) (M. abscessus; up to 32 μM, 2- and 3-days p.t): did not display a decrease in the Mab_tdTomato burden; Mab infection clearance / Mab_tdTomato load in infected MPI-2_eGFP (M. abscessus; up to 32 μM, 2- and 3-days p.t, plate reader): did not resolve Mab infection; also recorded: did not detect a significant efficacy in killing intracellular bacteria; PLT, RBC, and WBC counts [3]: like untreated (NT) and DMSO-treated whole blood; also recorded: does not affect blood cell count; also recorded: no cytotoxicity against human cells; platelet activation markers: P-selectin, monocyte-platelet and granulocyte-platelet aggregates, aGPIIbIIIa (platelets; 1 µM (highest concentration), 0, 30, 60 min): not affected; platelet-associated Tissue Factor expression, microvesicle formation (platelets; 1 µM, 0, 30, 60 min): not influenced; BCG_tdTomato fluorescence / eGFP in infected MPI-2_eGFP (M. bovis BCG [4]): did not detect a reduction in Tdtomato fluorescence nor an increase in eGFP; also recorded: did not detect a significant efficacy in killing intracellular bacteria; minimal concentration that prevented the production of siderophores (M. bovis BCG [5]; CAS assay, M. bovis BCG in chelated Sauton's medium): 32 µM; relation of antimycobacterial activity to inhibition of iron uptake (Universal CAS assay) (M. bovis BCG [5]; M. bovis BCG culture supernatants, 15 days): correlated to the inhibition of iron uptake; also recorded: positively related to the inhibition of iron uptake
7 | N#Cc1cc(OCCNc2ccccc2)cc(-c2ccc(C(=O)O)o2)c1 [1g, 5-(3-Cyano-5-(2-(phenylamino)ethoxy)phenyl)furan-2-carboxylic acid] | ~18 µM and 18 µM | 9.3 ± 2.2 | 250 (≈ 87.1 µg/mL) |  | 
8 | N#Cc1cc(Oc2ccc3ccccc3c2)cc(-c2ccc(C(=O)O)o2)c1 [1h, 5-(3-Cyano-5-(naphthalen-2-yloxy)phenyl)furan-2-carboxylic acid] | 16.3 ± 1.2 µM | 12.7 ± 2 | 125 (≈ 44.4 µg/mL) | 226 °C | 
9 | N#Cc1cc(Oc2ccc3cccnc3c2)cc(-c2ccc(C(=O)O)o2)c1 [1i, 5-(3-Cyano-5-(quinolin-7-yloxy)phenyl)furan-2-carboxylic acid] | 16.6 ± 1 µM | 13.9 ± 3.1 | 125 (≈ 44.5 µg/mL) | 263 °C (dec.) | 
10 | N#Cc1cc(OCc2ccc3ccccc3c2)cc(-c2ccc(C(=O)O)o2)c1 [1j, 5-(3-Cyano-5-(naphthalen-2-ylmethoxy)phenyl)furan-2-carboxylic acid] | 34.8 ± 2.5 µM | 19.8 ± 6.5 | 250 (≈ 92.3 µg/mL) | 209 °C (dec.) | 
11 | N#Cc1cccc(-c2ccc(C(=O)O)o2)c1 [I, 5-(3-cyanophenyl)furan-2-carboxylic acid] |  |  |  |  | MIC99 (M. bovis BCG [6]): 250 µM (≈ 53.3 µg/mL)
